Here are results for three compounds from patent publication US12428459B2, “Protein tag to induce ligand dependent degradation of protein/protein-fusions” (DANA-FARBER CANCER INSTITUTE, INC., priority 2019, dated 2025).

For orientation: Ki means the dissociation constant of the complex between target and ligand, obtained from inhibition or displacement. In general, EC50 refers to the concentration at which the effect is half-maximal.

“Also recorded” adds a separate entry of the source.

In test [1] the test system is DDB1ΔB-DCAF15biotin-DDA1 / RBM39RRM2. In words: TR-FRET titration of BodipyFL-RBM39RRM2 to the DDA1-containing complex with E7820. The class given is binding, human. Conditions: with versus without DDA1. The method, then:
(§1) Titrations of BodipyFL-RBM39 were carried out by mixing 400 nM biotinylated Strep II Avi-tagged DCAF15 variants, 100 μM compounds or equivalent volume of DMSO, and 4 nM terbium-coupled streptavidin in the same assay buffer. After dispensing the assay mixture, increasing concentration of BodipyFL-RBM39 was added to the compound-bound DCAF15 in a 1:1 volume ratio and incubated for 15 min at room temperature. The 520/490 nm ratios were plotted to calculate the Kd values estimated using One site-Specific binding equation in GraphPad Prism® 7.
In general terms: TR-FRET usually uses a lanthanide donor and a delayed reading to cut background.

The subject of another test is DDB1ΔB-DCAF15biotin-DDA1. In words: TR-FRET titration of BodipyFL-E7820 probe to the DDA1-containing complex. The class given is binding, human. Conditions: with versus without DDA1. The protocol:
Titrations of BodipyFL-E7820 (4) were carried out by mixing 200 nM biotinylated Strep II Avi-tagged DCAF15 variants or equivalent volume of the assay buffer, 2 nM terbium-coupled streptavidin in the same assay buffer. After dispensing the assay mixture, increasing concentration of BodipyFL-E7820 (4) was dispensed in the 384-well plate using D300e normalized to 2% DMSO, and then incubated for 15 min at room temperature. The 520/490 nm ratios from the sample with DCAF15 was subtracted by the ratios from the sample without DCAF15, and the subtracted values were plotted to calculate the Kd values estimated using One site-Specific binding equation in GraphPad Prism® 7. All TR-FRET results are plotted as means±s.d. from three independent replicates (n=3) unless otherwise indicated.

Another test has as its target T1, RBM39RRM2-biotin (Homo sapiens, UniProt Q14498).
T1 construct: RBM39RRM2 (245-332), and RBM23RRM2 (263-341); made in house; host or cells: Trichoplusia ni High Five insect cells (baculovirus)
T1 sequence (Q14498 245-332): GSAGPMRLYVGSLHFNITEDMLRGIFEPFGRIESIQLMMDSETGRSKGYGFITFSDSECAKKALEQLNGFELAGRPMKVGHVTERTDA
In words: TR-FRET titration of BodipyFL-E7820 probe to RBM39RRM2-biotin. It counts as binding. Conditions: RBM39RRM2-biotin alone.

For test [2], the target named is T2, DDB1ΔB-DCAF15 and BodipyFL-RBM39RRM2-G268V (Homo sapiens, UniProt Q14498+Q66K64, G268V).
T2 construct: RBM39RRM2 (245-332), and RBM23RRM2 (263-341); made in house; host or cells: Trichoplusia ni High Five insect cells (baculovirus)
The experiment in a line: TR-FRET recruitment assay with the RBM39RRM2 G268V mutant: titration of E7820. It counts as binding. The following applies: BodipyFL-RBM39RRM2-G268V 200 nM, E7820 0.002-33 μM. The protocol:
(§2) Titrations of compounds to induce DCAF15-RBM39 or DCAF15-RBM23 complex were carried out by mixing 200 nM biotinylated Strep II Avi-tagged DCAF15, 200 nM BodipyFL-labeled RBM39 or RBM23 variants, and 2 nM terbium-coupled streptavidin (Invitrogen™) in an assay buffer containing 50 mM Tris pH 8.0, 200 mM NaCl, 0.1% Pluronic F-68 solution (Sigma®), and 0.5% BSA (w/v). Full-length human DCAF15 was used in all TR-FRET assays. After dispensing the assay mixture, increasing concentrations of compounds were dispensed in a 384-well microplate (Corning, 4514) using a D300e Digital Dispenser (HP) normalized to 2% DMSO. Before TR-FRET measurements were conducted, the reactions were incubated for 15 min at room temperature. After excitation of terbium fluorescence at 337 nm, emission at 490 nm (terbium) and 520 nm (BodipyFL) were recorded with a 70 μs delay over 600 μs to reduce background fluorescence, and the reaction was followed over 60 cycles of each data point using a PHERAstar® FS microplate reader (BMG Labtech). The TR-FRET signal of each data point was extracted by calculating the 520/490 nm ratio. The half-maximal effective concentration EC50 values calculated using [Agonist] vs response (three parameters) equation in GraphPad Prism® 7.

Test [3] concerns the target T3, DDB1ΔB-DCAF15split and BodipyFL-RBM39RRM2 (Homo sapiens, UniProt Q14498+Q66K64).
T3 construct: DCAF15 NTD (30-264), DCAF15 CTD (383-600); RBM39RRM2 (245-332), and RBM23RRM2 (263-341); Strep II Avi (N); made in house; host or cells: Trichoplusia ni High Five insect cells (baculovirus)
In words: TR-FRET recruitment assay with DCAF15split: titration of E7820. It counts as binding. Conditions: E7820 0.002-33 μM, proteins at 200 nM.

In the next test the target is T4, RBM39 in HEK293T cells (Homo sapiens, UniProt Q14498+Q66K64).
T4 construct: cellular degradation of endogenous RBM39; endogenous in cells; host or cells: HEK293T
In words: Cellular degradation of endogenous RBM39, western blot. The class given is cell-based. The following applies: 500 nM E7820, HEK293T, 6 h. The protocol: FIG. 7A-FIG. 7G are a series of cartoon representations, graphs, and structures depicting the biochemical characterization of DCAF15 binding to aryl-sulfonamides and RBM39RRM2. FIG. 7A is a schematic representation of TR-FRET-based DCAF15-RBM39 dimerization assay. FIG. 7B is a graph of TR-FRET for the titration of BodipyFL-RBM39RRM2 (0.02-20 μM) to DDB1ΔB-DCAF15biotin at 200 nM in the absence (DMSO) or presence of aryl-sulfonamides at 50 μM. Data is plotted as means±s.d. from three independent replicates (n=3). […] FIG. 7D is a schematic representation of TR-FRET-based DCAF15 binding assay. Compound 4 is titrated to the DDB1ΔB-DCAF15biotin, and the probe is displaced by competitor compounds. FIG. 7E is the chemical structure of BodipyFL-E7820 (4). […] Data is plotted as means±s.d. from three independent replicates (n=3). FIG. 7G is an immunoblot showing cellular degradation of endogenous RBM39. […] Shown is the uncropped blot with molecular size markers. The positions of RBM39 and GAPDH are indicated, and the asterisk marks a non-specific band. Quantitation of RBM39 and GAPDH bands was performed with the LI-COR imaging system, and % RBM39 is calculated as [RBM39 intensity/GAPDH intensity].

Another test concerns Kelly cells. In words: TMT quantification mass spectrometry proteomics (degradome of E7820). The following applies: E7820 10 μM, 5 h. The class given is cell-based. The protocol: Treated Kelly cells were washed in PBS (Corning VWR, Radnor PA, USA) and collected at 3000 g centrifugation. Sample preparation and LC-MS analysis for whole proteome identification of novel E7820-dependent substrates was performed as described previously (Donovan et al., Elife 7:38430 (2018)).

Another test concerns the target T5, DDB1ΔB-DCAF15biotin (Homo sapiens, UniProt Q66K64).
T5 construct: Full-length human DCAF15 was used in all TR-FRET assays; made in house; host or cells: Trichoplusia ni High Five insect cells (baculovirus)
The experiment in a line: TR-FRET competition assay: displacement of BodipyFL-E7820 by aryl-sulfonamides. It counts as binding. Conditions: for DCAF15 binding relative to E7820: competitive binding assay. The text has this: The 520/490 nm ratios from the sample with DCAF15 was subtracted by the ratios from the sample without DCAF15, and the subtracted values were plotted to calculate the Kd values estimated using One site-Specific binding equation in GraphPad Prism® 7. All TR-FRET results are plotted as means±s.d. from three independent replicates (n=3) unless otherwise indicated.

The target in test [4] is T6, DDB1ΔB-DCAF15biotin and BodipyFL-RBM39RRM2 (Homo sapiens, UniProt Q14498+Q66K64).
T6 construct: Full-length human DCAF15 was used in all TR-FRET assays; RBM39RRM2 (245-332), and RBM23RRM2 (263-341); made in house; host or cells: Trichoplusia ni High Five insect cells (baculovirus)
In words: TR-FRET RBM39RRM2 recruitment assay: titration of compound. It counts as binding. Conditions: BodipyFL-RBM39RRM2-WT 200 nM, DCAF15 200 nM; read-out: EC50 of DCAF15-RBM39RRM2 complex formation. The protocol:
as §2

Test [5] relates to degron tag-eGFP fusion protein in HEK293T cells. In words: Compound-dependent degradation of degron-eGFP fusion, eGFP/mCherry ratio. The class given is cell-based. The following applies: 20-hour treatment. The source says: To test compound-dependent degradation of the designed degron tags, a fusion protein of the tags and enhanced green fluorescence protein (eGFP) was stably expressed in HEK293T cells using a lentiviral vector. As an internal control, the cells also expressed an untagged mCherry protein downstream of the same promoter as degron-eGFP separated by an internal ribosomal entry site. […] A lower value of eGFP/mCherry at the same compound concentration indicates a higher rate of degradation. Designed degrons have higher degradation at low doses of aryl-sulfonamides and also lower IC50 values.

The target of test [6] is T7, DDB1ΔB-DCAF15biotin / RBM39RRM2 (Homo sapiens, UniProt Q14498+Q66K64).
T7 construct: Full-length human DCAF15 was used in all TR-FRET assays; RBM39RRM2 (245-332), and RBM23RRM2 (263-341); made in house; host or cells: Trichoplusia ni High Five insect cells (baculovirus)
The experiment in a line: TR-FRET DCAF15-RBM39 dimerization assay: titration of BodipyFL-RBM39RRM2 to DDB1ΔB-DCAF15biotin with aryl-sulfonamide. The class given is binding. The following applies: compound at 50 μM; DDB1ΔB-DCAF15biotin without DDA1; read-out: KD^app of RBM39RRM2 for DDB1ΔB-DCAF15 in the presence of compound. The protocol:
Time-Resolved Fluorescence Resonance Energy Transfer (TR-FRET)
as §1

As for `Cc1ccc(NS(=O)(=O)c2cccc(C#N)c2)c2[nH]cc(C#N)c12` [E7820], the “Strengthening of apparent affinity to RBM39RRM2 by DDA1” value in test [1] is given as about 3 fold. Further, the “Effect of DDA1 on the affinity of E7820 to DCAF15” value with DDB1ΔB-DCAF15biotin-DDA1 was “not altered”. For the same compound, on RBM39RRM2-biotin, the “Binding to RBM39RRM2” value is “not with RBM39”. Moreover, the “RBM39RRM2 recruitment to DCAF15 with Gly268Val mutation” value in [2] is “completely abrogated”. For the same compound, the “DCAF15-RBM39 dimerization, DCAF15split versus full length DCAF15” value in [3] was “equivalent binding”. At RBM39 in HEK293T cells, the “Degradation of RBM39 in cells” value is recorded as “potently degraded”. Besides, the “Proteins degraded out of ~11,000 proteins detected” value in the test on Kelly cells was “only RBM23 to be degraded in addition to RBM39”.

On to `NS(=O)(=O)c1ccc(S(=O)(=O)Nc2cccc3c(Cl)c[nH]c23)cc1` [indisulam], for which the Ki on DDB1ΔB-DCAF15biotin (DDB1ΔB-DCAF15biotin 200 nM, BodipyFL-E7820 5 μM, aryl-sulfonamides 0.002-100 μM, read-out: Ki for DCAF15) was over 50 µM. The “DCAF15 binding relative to E7820” value at DDB1ΔB-DCAF15biotin was “significant loss of DCAF15 binding; also recorded: significant loss in affinity for DCAF15”. The EC50 in [4] amounted to 3.2 µM. In addition, the “Degradation of designed degron tag-eGFP (eGFP/mCherry ratio)” value in test [5] was “dose-dependent degradation”.

For `O=C(NS(=O)(=O)c1ccc(Br)s1)c1ccc(Cl)cc1Cl` [tasisulam], the Kd in test [6] is 3.5 µM. Besides, the “DCAF15 binding relative to E7820” value at DDB1ΔB-DCAF15biotin is “significant loss in affinity for DCAF15”. In addition, in test [4], the EC50 was over 10 µM. Also, the “Degradation of designed degron tag-eGFP (eGFP/mCherry ratio)” value in test [5] is listed as “dose-dependent degradation”.
